One may read the IC50 as the concentration that inhibits the measured activity by half. By melting point is commonly meant the temperature, or range, at which the solid turns liquid.

Among the data in US20100056515A1, “BENZIMIDAZOLE COMPOUNDS” (priority 2006, published 2010) are IC50 and melting point values, retold here.

One data set deals with T1, human CRF receptor (Homo sapiens, UniProt P34998).
T1 construct: expressed in transfected cells; host or cells: CHO cells (membrane fraction)
T1 sequence (P34998 24-415): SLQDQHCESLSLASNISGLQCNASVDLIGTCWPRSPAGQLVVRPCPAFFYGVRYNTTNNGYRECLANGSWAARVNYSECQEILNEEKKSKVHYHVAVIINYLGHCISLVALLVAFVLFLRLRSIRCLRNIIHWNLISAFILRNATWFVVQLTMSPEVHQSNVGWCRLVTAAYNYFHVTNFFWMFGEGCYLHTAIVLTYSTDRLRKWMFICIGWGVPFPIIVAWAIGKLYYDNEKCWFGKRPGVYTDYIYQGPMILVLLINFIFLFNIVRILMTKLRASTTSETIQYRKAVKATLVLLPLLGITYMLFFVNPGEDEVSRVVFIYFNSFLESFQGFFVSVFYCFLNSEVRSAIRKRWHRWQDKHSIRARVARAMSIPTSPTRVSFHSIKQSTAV
The experiment in a line: Measurement of CRF Binding Inhibitory Rate (receptor binding experiment with 125I-CRF). Conditions: human CRF receptor expressing CHO cellular membrane fraction; 50 pM ovine 125I-CRF; 0.05 nM to 10 μM of compound; room temperature 1.5 hr; read-out: IC50 values (CRF binding inhibition). How it is done:
Measurement of CRF Binding Inhibitory Rate
A receptor binding experiment was carried out using a human CRF receptor expressing CHO cellular membrane fraction and ovine CRF, [^125I]-tyr^0(^125I-CRF). 1000 nM of a test compound was incubated with 1 μg of human CRF receptor expressing CHO cellular membrane fraction and 50 pM of ^125I-CRF in a binding assay buffer (50 mM Tris-HCl, 5 mM EDTA, 10 mM MgCl2, 0.05% CHAPS, 0.1% BSA, 0.5 mM PMSF, 0.1 μg/mL pepstatin, 20 μg/mL leupeptin, pH 7.5). In addition, for measuring nonspecific binding (NSB), 0.1 μM unlabelled human Urocortin was incubated with 5 μg of human CRF receptor expressing CHO cellular membrane fraction and 50 pM of ^125I-CRF in a binding assay buffer. After a binding reaction was carried out at room temperature for 1.5 hr, the membrane was entrapped on a glass filter (UniFilter plate GF-C/Perkin Elmer) by suction filtration using a cell harvester (Perkin Elmer), and washed with ice-cooled 50 mM Tris-HCl (pH 7.5). After drying the glass filter, a liquid scintillation cocktail (Microscinti 0, Perkin Elmer) was added, and the radioactivity of ^125I-CRF remaining on a glass filter was measured using Topcount (Perkin Elmer).
(TB-SB)/(TB-NSB)×100 (SB: radioactivity when a compound is added, TB: maximum binding radioactivity, NSB: nonspecific binding radioactivity) were calculated to obtain binding inhibitory rates under the range of the presence from 0.05 nM to 10 μM of each compounds. The IC50 values were calculated by using GraphPad Prism software.

`CCC(CC=O)c1ccc(Cl)c2nc(Oc3c(C)cc(Cl)cc3Cl)n(C)c12` (centres unmarked) [Example 98, 3-[4-Chloro-2-(2,4-dichloro-6-methylphenoxy)-1-methyl-1H-benzimidazol-7-yl]pentanal] displayed a melting point of 157 to 158 °C. Also, the IC50 at human CRF receptor is less than 1 µM.

`CCC(CC)c1ccc(Cl)c2nc(Nc3c(C)cc(SC)cc3OC)n(C)c12` [Example 45, 4-Chloro-7-(1-ethylpropyl)-N-[2-methoxy-6-methyl-4-(methylthio)phenyl]-1-methyl-1H-benzimidazol-2-amine] yielded a melting point of 223 to 225 °C. The IC50 on human CRF receptor was less than 1 µM.

The compound `CCC(CC)c1ccc(Cl)c2nc(Oc3c(OC)cc(C(F)(F)F)nc3C)n(C)c12` [Example 56, 4-Chloro-7-(1-ethylpropyl)-2-{[4-methoxy-2-methyl-6-(trifluoromethyl)pyridin-3-yl]oxy}-1-methyl-1H-benzimidazole] displayed a melting point of 178 to 179 °C. Further, the IC50 on human CRF receptor is less than 1 µM.

Compound `CCC(CC)c1ccc(Cl)c2nc(Oc3c(C)cc(S(N)(=O)=O)cc3Cl)n(C)c12` [Example 40, 3-Chloro-4-{[4-chloro-7-(1-ethylpropyl)-1-methyl-1H-benzimidazol-2-yl]oxy}-5-methylbenzenesulfonamide] showed a melting point of 293 to 294 °C. Besides, the IC50 at human CRF receptor was less than 1 µM.

As for `CCC(CC)c1ccc(Cl)c2nc(Oc3c(Cl)cc(OC(F)(F)F)cc3SC)n(C)c12` [Example 42, 4-Chloro-2-[2-chloro-6-(methylthio)-4-(trifluoromethoxy)phenoxy]-7-(1-ethylpropyl)-1-methyl-1H-benzimidazole], the melting point fell in the range of 138 to 139 °C. Further, the IC50 at human CRF receptor was less than 1 µM.

`CCC(CC)c1ccc(Cl)c2nc(Oc3c(Cl)cc(Cl)cc3N3CCN(C)CC3)n(C)c12` [Example 26, 4-Chloro-2-[2,4-dichloro-6-(4-methylpiperazin-1-yl)phenoxy]-7-(1-ethylpropyl)-1-methyl-1H-benzimidazole] gave a melting point of 162 to 164 °C. For the same compound, the IC50 on human CRF receptor was less than 1 µM.

Take `CCC(CC)c1ccc(Cl)c2nc(Oc3c(Br)cc(Br)nc3C)n(C)c12` [Example 74, 4-Chloro-2-[(4,6-dibromo-2-methylpyridin-3-yl)oxy]-7-(1-ethylpropyl)-1-methyl-1H-benzimidazole]: the melting point was 202 to 203 °C. Moreover, on human CRF receptor, the IC50 is less than 1 µM.

Regarding `CCC(CC)c1ccc(Cl)c2nc(Oc3c(Cl)cc(Cl)cc3N3CCCC3)n(C)c12` [Example 29, 4-Chloro-2-(2,4-dichloro-6-pyrrolidin-1-ylphenoxy)-7-(1-ethylpropyl)-1-methyl-1H-benzimidazole], the melting point was in the range of 209 to 210 °C. Further, on human CRF receptor, the IC50 is less than 1 µM.

Regarding `CCC(CC)c1ccc(Cl)c2nc(Oc3ccc(N(C)C)cc3Cl)n(C)c12` [Example 83, 3-Chloro-4-{[4-chloro-7-(1-ethylpropyl)-1-methyl-1H-benzimidazol-2-yl]oxy}-N,N-dimethylaniline], the melting point is 148 to 149 °C. The IC50 at human CRF receptor is less than 1 µM.

For the compound `CCC(CC)c1ccc(OC)c2nc(Oc3c(C)cc(OC(F)(F)F)cc3CN(C)C)n(C)c12.Cl` [Example 15, 1-[2-{[7-(1-Ethylpropyl)-4-methoxy-1-methyl-1H-benzimidazol-2-yl]oxy}-3-methyl-5-(trifluoromethoxy)phenyl]-N,N-dimethylmethanamine Hydrochloride], the melting point was 92 to 94 °C. The IC50 on human CRF receptor was less than 1 µM.

`CCC(CC)c1ccc(OC)c2nc(Nc3c(C)cc(Cl)cc3Cl)n(C)c12` [Example 88, N-(2,4-Dichloro-6-methylphenyl)-7-(1-ethylpropyl)-4-methoxy-1-methyl-1H-benzimidazol-2-amine] showed a melting point of 201 to 203 °C. Moreover, the IC50 on human CRF receptor is less than 1 µM.

As to `CCC(CC)c1ccc(Cl)c2nc(Oc3c(C)cc(S(C)(=O)=O)cc3Cl)n(C)c12` [Example 38, 4-Chloro-2-[2-chloro-6-methyl-4-(methylsulfonyl)phenoxy]-7-(1-ethylpropyl)-1-methyl-1H-benzimidazole], the melting point is 199 to 200 °C. In addition, the IC50 at human CRF receptor is less than 1 µM.

Turning to `CCC(CC)c1ccc(Cl)c2nc(Oc3c(Cl)cc(OC(F)(F)F)cc3S(C)(=O)=O)n(C)c12` [Example 44, 4-Chloro-2-[2-chloro-6-(methylsulfonyl)-4-(trifluoromethoxy)phenoxy]-7-(1-ethylpropyl)-1-methyl-1H-benzimidazole], the melting point fell in the range of 164 to 165 °C. In addition, the IC50 at human CRF receptor is less than 1 µM.

Turning to `CCC(CC)c1ccc(Cl)c2nc(Oc3c(C)cc(C(C)=O)cc3Cl)n(C)c12` [Example 35, 1-(3-Chloro-4-{[4-chloro-7-(1-ethylpropyl)-1-methyl-1H-benzimidazol-2-yl]oxy}-5-methylphenyl)ethanone], the melting point lay within 160 to 161 °C. Also, the IC50 at human CRF receptor is less than 1 µM.

Compound `CCC(CC)c1ccc(OC)c2nc(Nc3ccc(Cl)cc3Br)n(C)c12` [Example 19, N-(2-Bromo-4-chlorophenyl)-7-(1-ethylpropyl)-4-methoxy-1-methyl-1H-benzimidazol-2-amine] came in with a melting point of 193 to 195 °C. The IC50 at human CRF receptor is less than 1 µM.

Take `CCC(CC)c1ccc(OC)c2nc(Oc3ccc(C(C)=O)cc3C)n(C)c12` [Example 6, 1-(4-{[7-(1-Ethylpropyl)-4-methoxy-1-methyl-1H-benzimidazol-2-yl]oxy}-3-methylphenyl)ethanone]: the melting point lay within 114 to 115 °C. On human CRF receptor, the IC50 was less than 1 µM.

`CCC(CC)c1ccc(Cl)c2nc(Oc3c(Cl)cc(Cl)cc3-n3ccnc3)n(C)c12` [Example 27, 4-Chloro-2-[2,4-dichloro-6-(1H-imidazol-1-yl)phenoxy]-7-(1-ethylpropyl)-1-methyl-1H-benzimidazole] registered a melting point of 134 to 135 °C. At human CRF receptor, the IC50 was less than 1 µM.

With `CCC(CC)c1ccc(OC)c2nc(Oc3ccc(C(F)(F)F)cc3N(C)C)n(C)c12` [Example 12, 2-{[7-(1-Ethylpropyl)-4-methoxy-1-methyl-1H-benzimidazol-2-yl]oxy}-N,N-dimethyl-5-(trifluoromethyl)aniline], the melting point fell in the range of 131 to 133 °C. Moreover, at human CRF receptor, the IC50 is less than 1 µM.

On to `CCC(CC)c1ccc(Cl)c2nc(Oc3c(Br)cc(C(F)(F)F)nc3C)n(C)c12` [Example 75, 2-{[4-Bromo-2-methyl-6-(trifluoromethyl)pyridin-3-yl]oxy}-4-chloro-7-(1-ethylpropyl)-1-methyl-1H-benzimidazole], for which, at human CRF receptor, the IC50 was less than 1 µM.

In turn, `CCC(CC)c1ccc(OC)c2nc(Oc3c(Cl)cc(Cl)cc3CN(C)C)n(C)c12.Cl` [Example 77, 1-(3,5-Dichloro-2-{[7-(1-ethylpropyl)-4-methoxy-1-methyl-1H-benzimidazol-2-yl]oxy}phenyl)-N,N-dimethylmethanamine] yielded a melting point of 169 to 170 °C. The IC50 at human CRF receptor is less than 1 µM.

Turning to `CCC(CC)c1ccc(Cl)c2nc(Oc3c(C(F)(F)F)cc(C(F)(F)F)nc3C)n(C)c12` [Example 76, 4-Chloro-7-(1-ethylpropyl)-1-methyl-2-{[2-methyl-4,6-bis(trifluoromethyl)pyridin-3-yl]oxy}-1H-benzimidazole], the IC50 on human CRF receptor is less than 1 µM.

`CCC(CC)c1ccc(OC)c2nc(Oc3ncc(Br)cc3C)n(C)c12` [Example 8, 2-[(5-Bromo-3-methylpyridin-2-yl)oxy]-7-(1-ethylpropyl)-4-methoxy-1-methyl-1H-benzimidazole]: the IC50 on human CRF receptor was less than 1 µM.

With `CCC(CC)c1ccc(Cl)c2nc(Oc3c(Cl)cc(Cl)cc3[Si](C)(C)C)n(C)c12` [Example 60, 4-Chloro-2-[2,4-dichloro-6-(trimethylsilyl)phenoxy]-7-(1-ethylpropyl)-1-methyl-1H-benzimidazole], at human CRF receptor, the IC50 is less than 1 µM.

For `CCC(c1cccc2nc(Nc3c(C)cc(Cl)cc3OC)n(C)c12)N(C)C` (centres unmarked) [Example 62, N-(4-Chloro-2-methoxy-6-methylphenyl)-7-[1-(dimethylamino)propyl]-1-methyl-1H-benzimidazol-2-amine], the IC50 at human CRF receptor is less than 1 µM.

For the compound `CCC(CC)c1ccc(Cl)c2nc(Nc3c(C)cc(Cl)cc3OC)[nH]c12` [Example 67, 4-Chloro-N-(4-chloro-2-methoxy-6-methylphenyl)-7-(1-ethylpropyl)-1H-benzimidazol-2-amine], the IC50 on human CRF receptor is less than 1 µM.
